Measured values reported in PubChem BioAssay AID1963833 (Molecular Pharmacology Branch, DTP, NCI, 2024).

System: 883617-216-R-J1-PDC complex spheroid viability
Assay: Anticancer human tumor 883617-216-R-J1-PDC patient-derived bladder carcinoma cell line growth inhibition [POLQ]
Settings: for IC50: curve of first compound; for viability, T/C: stronger effect = lower value
Procedure, shortened: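 Growth inhibition in 3D: complex spheroids (tumor PDC, HUVEC, MSC) treated with POLQ inhibitor combinations; where Cmax unknown, highest tested concentration 10 microM, except SN-38 at 1 microM.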

[1] = second compound 0.0316 µM, first compound 0.0316 µM
[2] = second compound 0.0316 µM, first compound 0.1 µM
[3] = second compound 0.0316 µM, first compound 0.316 µM
[4] = second compound 0.0316 µM, first compound 1 µM
[5] = second compound 0.0316 µM, first compound 3.16 µM
[6] = second compound 0.0316 µM, first compound 10 µM
[7] = second compound 0.1 µM, first compound 0.0316 µM
[8] = second compound 0.1 µM, first compound 0.1 µM
[9] = second compound 0.1 µM, first compound 0.316 µM
[10] = second compound 0.1 µM, first compound 1 µM
[11] = second compound 0.1 µM, first compound 3.16 µM
[12] = second compound 0.1 µM, first compound 10 µM
[13] = second compound 0.316 µM, first compound 0.0316 µM
[14] = second compound 0.316 µM, first compound 0.1 µM
[15] = second compound 0.316 µM, first compound 0.316 µM
[16] = second compound 0.316 µM, first compound 1 µM
[17] = second compound 0.316 µM, first compound 3.16 µM
[18] = second compound 0.316 µM, first compound 10 µM
[19] = second compound 1 µM, first compound 0.0316 µM
[20] = second compound 1 µM, first compound 0.1 µM
[21] = second compound 1 µM, first compound 0.316 µM
[22] = second compound 1 µM, first compound 1 µM
[23] = second compound 1 µM, first compound 3.16 µM
[24] = second compound 1 µM, first compound 10 µM
[25] = second compound 3.16 µM, first compound 0.0316 µM
[26] = second compound 3.16 µM, first compound 0.1 µM
[27] = second compound 3.16 µM, first compound 0.316 µM
[28] = second compound 3.16 µM, first compound 1 µM
[29] = second compound 3.16 µM, first compound 3.16 µM
[30] = second compound 3.16 µM, first compound 10 µM
[31] = second compound 10 µM, first compound 0.0316 µM
[32] = second compound 10 µM, first compound 0.1 µM
[33] = second compound 10 µM, first compound 0.316 µM
[34] = second compound 10 µM, first compound 1 µM
[35] = second compound 10 µM, first compound 3.16 µM
[36] = second compound 10 µM, first compound 10 µM
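Further: spheroids exposed to compounds for seven days before readout.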
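Wherever viability, T/C is given: 100% = DMSO vehicle control viability.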

CC1COCCN1c1cc(-c2ccnn2C)c2ccnc(-c3ccn[nH]3)c2n1 (stereo unspecified) + COC1C(OC(N)=O)C(O)C(Oc2ccc3c(O)c(NC(=O)c4ccc(O)c(CC=C(C)C)c4)c(=O)oc3c2C)OC1(C)C
IC50 (second compound 0.0316 µM): 297 nM | IC50 (second compound 0.1 µM): 285 nM | IC50 (second compound 0.316 µM): 124 nM | IC50 (second compound 1 µM): 154 nM | IC50 (second compound 3.16 µM): 156 nM | IC50 (second compound 10 µM): 139 nM | viability, T/C [1]: 89.7% | viability, T/C [2]: 63.8% | viability, T/C [3]: 53.1% | viability, T/C [4]: 37% | viability, T/C [5]: 28.1% | viability, T/C [6]: 30.7% | viability, T/C [7]: 83.2% | viability, T/C [8]: 62.9% | viability, T/C [9]: 49.5% | viability, T/C [10]: 37.7% | viability, T/C [11]: 31.7% | viability, T/C [12]: 27% | viability, T/C [13]: 91.2% | viability, T/C [14]: 51% | viability, T/C [15]: 38.6% | viability, T/C [16]: 40.8% | viability, T/C [17]: 33.1% | viability, T/C [18]: 27.3% | viability, T/C [19]: 82.7% | viability, T/C [20]: 54.3% | viability, T/C [21]: 41.7% | viability, T/C [22]: 32.5% | viability, T/C [23]: 26.5% | viability, T/C [24]: 24.4% | viability, T/C [25]: 86.3% | viability, T/C [26]: 53.3% | viability, T/C [27]: 44% | viability, T/C [28]: 34.8% | viability, T/C [29]: 29.6% | viability, T/C [30]: 29.5% | viability, T/C [31]: 91.1% | viability, T/C [32]: 54.4% | viability, T/C [33]: 39.2% | viability, T/C [34]: 32.2% | viability, T/C [35]: 29.8% | viability, T/C [36]: 32.3%

CC1COCCN1c1cc(C2(S(C)(=N)=O)CC2)nc(-c2ccnc3[nH]ccc23)n1 (stereo unspecified) + COC1C(OC(N)=O)C(O)C(Oc2ccc3c(O)c(NC(=O)c4ccc(O)c(CC=C(C)C)c4)c(=O)oc3c2C)OC1(C)C
IC50 (second compound 0.0316 µM): 2630 nM | IC50 (second compound 0.1 µM): 2110 nM | IC50 (second compound 0.316 µM): 2530 nM | IC50 (second compound 1 µM): 3630 nM | IC50 (second compound 3.16 µM): 1830 nM | IC50 (second compound 10 µM): 2950 nM | viability, T/C [1]: 89% | viability, T/C [2]: 101% | viability, T/C [3]: 84.5% | viability, T/C [4]: 83.5% | viability, T/C [5]: 43.5% | viability, T/C [6]: 31.2% | viability, T/C [7]: 91.1% | viability, T/C [8]: 91.5% | viability, T/C [9]: 87.3% | viability, T/C [10]: 69.1% | viability, T/C [11]: 39.1% | viability, T/C [12]: 37.1% | viability, T/C [13]: 99.4% | viability, T/C [14]: 89.6% | viability, T/C [15]: 82.7% | viability, T/C [16]: 67.8% | viability, T/C [17]: 42.7% | viability, T/C [18]: 38.7% | viability, T/C [19]: 102% | viability, T/C [20]: 84.8% | viability, T/C [21]: 91.2% | viability, T/C [22]: 70.8% | viability, T/C [23]: 51.9% | viability, T/C [24]: 31.3% | viability, T/C [25]: 88.3% | viability, T/C [26]: 97.3% | viability, T/C [27]: 97.1% | viability, T/C [28]: 61.8% | viability, T/C [29]: 45.7% | viability, T/C [30]: 32.6% | viability, T/C [31]: 85.1% | viability, T/C [32]: 82.4% | viability, T/C [33]: 89.9% | viability, T/C [34]: 65% | viability, T/C [35]: 52.5% | viability, T/C [36]: 40.5%

CCCS(=O)(=O)Nc1ccc(F)c(C(=O)c2c[nH]c3ncc(-c4ccc(Cl)cc4)cc23)c1F + COC1C(OC(N)=O)C(O)C(Oc2ccc3c(O)c(NC(=O)c4ccc(O)c(CC=C(C)C)c4)c(=O)oc3c2C)OC1(C)C
IC50 (second compound 0.0316 µM): 8230 nM | IC50 (second compound 0.1 µM): 9580 nM | IC50 (second compound 0.316 µM): > 10000 nM | IC50 (second compound 1 µM): 9070 nM | IC50 (second compound 3.16 µM): > 10000 nM | IC50 (second compound 10 µM): 8990 nM | viability, T/C [1]: 90.3% | viability, T/C [2]: 103% | viability, T/C [3]: 103% | viability, T/C [4]: 94.2% | viability, T/C [5]: 84.6% | viability, T/C [6]: 42.9% | viability, T/C [7]: 105% | viability, T/C [8]: 119% | viability, T/C [9]: 108% | viability, T/C [10]: 105% | viability, T/C [11]: 76.8% | viability, T/C [12]: 49% | viability, T/C [13]: 102% | viability, T/C [14]: 102% | viability, T/C [15]: 102% | viability, T/C [16]: 103% | viability, T/C [17]: 90% | viability, T/C [18]: 50.1% | viability, T/C [19]: 103% | viability, T/C [20]: 93.9% | viability, T/C [21]: 106% | viability, T/C [22]: 98.5% | viability, T/C [23]: 100% | viability, T/C [24]: 45.3% | viability, T/C [25]: 94.8% | viability, T/C [26]: 88% | viability, T/C [27]: 103% | viability, T/C [28]: 105% | viability, T/C [29]: 96.4% | viability, T/C [30]: 56.4% | viability, T/C [31]: 106% | viability, T/C [32]: 96.7% | viability, T/C [33]: 97.3% | viability, T/C [34]: 103% | viability, T/C [35]: 93.2% | viability, T/C [36]: 45.4%
